Data published in US20060293307A1, “Oxazolidinone derivatives as antimicrobials” (priority 2002, published 2006).
In brackets after ≈: the same amount, converted by molar mass. Like-named read-outs stand apart in the source and are kept apart here.

How the values were obtained:
S. aureus ATCC29213 = experiment: MIC, agar incorporation method; type: cell-based, Staphylococcus aureus; conditions: Staphylococcus aureus
S. aureus SG 511 = experiment: MIC, agar incorporation method; type: cell-based, Staphylococcus aureus; conditions: Staphylococcus aureus, SG511
S. aureus (MRSA) ST450 = experiment: MIC, agar incorporation method; type: cell-based, Staphylococcus aureus; conditions: Staphylococcus aureus
(MRSA) 562 = experiment: MIC, agar incorporation method; type: cell-based, Staphylococcus aureus; conditions: Staphylococcus aureus
S. aureus (Smith 49951) = experiment: MIC, agar incorporation method; type: cell-based, Staphylococcus aureus; conditions: Staphylococcus aureus
[1] = test system: S. epidermidis (MRSE) 23760; experiment: MIC, agar incorporation method; type: cell-based, Staphylococcus epidermidis; conditions: Staphylococcus epidermidis
[2] = test system: S. epidermidis (MRSE)32965; experiment: MIC, agar incorporation method; type: cell-based, Staphylococcus epidermidis; conditions: Staphylococcus epidermidis
E. faecalis SP 346 (VRE) = experiment: MIC, agar incorporation method; type: cell-based; conditions: Enterococcus faecalis
Salmonella 205 = experiment: MIC, agar incorporation method; type: cell-based; conditions: S. No. 26, Salmonella 205; read-out: MIC
Method: The compounds of the invention display antibacterial activity when tested by the agar incorporation method. The following minimum inhibitory concentrations (μg/ml) were obtained for representative compounds of the invention which are given below in the following tables.
Briefly, the compounds were dissolved in DMSO and doubling dilution of the compounds were incorporated into Meer Hilton agar before solidification. Inoculum was prepared by suspending 4 to 5 colonies into 5 ml of normal saline solution and adjusting the turbidity to 0.5 Macfarland turbidity standard tables (1.5×10^8 CFU/ml), after appropriate dilutions, 10^4 CFU/spot was transfered into the surface of dried plate and incubated for 18 hours (24 hours for MRSN studies). The concentration showing no growth of the inoculated culture was recorded as the MIC. Appropriate ATCC standard strains were simultaneously tested and result recorded only when the MIC's against standard antibiotics were within the acceptable range.

S. pneumoniae AB-3 = experiment: MIC, agar incorporation method; type: cell-based, Streptococcus pneumoniae; conditions: Streptococcus pneumoniae, AB3
S. pneumoniae AB 31 = experiment: MIC, agar incorporation method; type: cell-based, Streptococcus pneumoniae; conditions: Streptococcus pneumoniae, AB31
S. pneumoniae 217 = experiment: MIC, agar incorporation method; type: cell-based, Streptococcus pneumoniae; conditions: Streptococcus pneumoniae
S. pneumoniae CS 1687 = experiment: MIC, agar incorporation method; type: cell-based, Streptococcus pneumoniae; conditions: Streptococcus pneumoniae, CS1687
S. pneumoniae ATCC 49619 = experiment: MIC, agar incorporation method; type: cell-based, Streptococcus pneumoniae; conditions: Streptococcus pneumoniae, ATCC49619
S. pneumoniae AB 34 = experiment: MIC, agar incorporation method; type: cell-based, Streptococcus pneumoniae; conditions: Streptococcus pneumoniae, AB34
S. pneumoniae 1251 = experiment: MIC, agar incorporation method; type: cell-based, Streptococcus pneumoniae; conditions: Streptococcus pneumoniae
S pneumoniae 1294. = experiment: MIC, agar incorporation method; type: cell-based, Streptococcus pneumoniae; conditions: Streptococcus pneumoniae
S. pneumoniae 1256 = experiment: MIC, agar incorporation method; type: cell-based, Streptococcus pneumoniae; conditions: Streptococcus pneumoniae
S. pneumoniae 1275 = experiment: MIC, agar incorporation method; type: cell-based, Streptococcus pneumoniae; conditions: Streptococcus pneumoniae
Moraxella cata. M2 = experiment: MIC, agar incorporation method; type: cell-based
H. influenzae 35056 = experiment: MIC against Haemophilus strains; type: cell-based; conditions: Haemophilus influenzae, 35056
H. influenzae 1745 = experiment: MIC against Haemophilus strains; type: cell-based; conditions: Haemophilus influenzae, 1745

SMILES	MIC (S. aureus ATCC29213; ATCC29213) [µg/mL]	MIC (S. aureus SG 511) [µg/mL]	MIC (S. aureus (MRSA) ST450; MRSA) [µg/mL]	MIC ((MRSA) 562; MRSA) [µg/mL]	MIC (S. aureus (Smith 49951)) [µg/mL]	MIC ([1]; MRSE) [µg/mL]	MIC ([2]; MRSE) [µg/mL]	MIC (E. faecalis SP 346 (VRE); VRE) [µg/mL]	MIC (Salmonella 205) [µg/mL]	MIC (S. pneumoniae AB-3) [µg/mL]	MIC (S. pneumoniae AB 31) [µg/mL]	MIC (S. pneumoniae 217; 217) [µg/mL]	MIC (S. pneumoniae CS 1687) [µg/mL]	MIC (S. pneumoniae ATCC 49619) [µg/mL]	MIC (S. pneumoniae AB 34) [µg/mL]	MIC (S. pneumoniae 1251; 1251) [µg/mL]	MIC (S pneumoniae 1294.; 1294.) [µg/mL]	MIC (S. pneumoniae 1256; 1256) [µg/mL]	MIC (S. pneumoniae 1275; 1275) [µg/mL]	MIC (Moraxella cata. M2; Moraxella, CATA.M2) [µg/mL]	further results
O=C(NC[C@H]1CN(c2ccc(N3CCN(c4ccc([N+](=O)[O-])s4)CC3)c(F)c2)C(=O)O1)C(F)F [Compound No. 8, (S)—N-[[3-[3-Fluoro-4-[4-(5-nitro-2-thienyl)-1-piperazinyl]phenyl]-2-oxo-5-oxazolidinyl]methyl]difluoroacetamide]	2 (≈ 4 µM)	0.25 (≈ 0.501 µM)	2 (≈ 4 µM)	2 (≈ 4 µM)	1 (≈ 2 µM)	0.25 (≈ 0.501 µM)	0.25 (≈ 0.501 µM)	0.25 (≈ 0.501 µM)	> 8	0.125 (≈ 0.25 µM)	0.25 (≈ 0.501 µM)	0.25 (≈ 0.501 µM)	0.25 (≈ 0.501 µM)	0.25 (≈ 0.501 µM)	0.5 (≈ 1 µM)	0.25 (≈ 0.501 µM)	0.25 (≈ 0.501 µM)	0.125 (≈ 0.25 µM)	0.06 (≈ 0.12 µM)	1 (≈ 2 µM)	MIC (H. influenzae 35056): > 16 µg/mL; MIC (H. influenzae 1745): 16 µg/mL (≈ 32 µM)
CC(=O)NC[C@H]1CN(c2ccc(N3CCN(c4ccc([N+](=O)[O-])o4)CC3)c(F)c2)C(=O)O1 [Compound No. 4, (S)—N-[[3-[3-Fluoro-4-[4-(5-nitro-2-furyl)-1-piperazinyl]phenyl]-2-oxo-5-oxazolidinyl]methyl]acetamide]									> 16												MIC (S. aureus ATCC29213; S. No. 2, S. aureus ATCC29213, read-out: MIC): 16 µg/mL (≈ 35.8 µM); MIC (S. aureus SG 511; S. No. 3, S. aureus SG 511, read-out: MIC): 16 µg/mL (≈ 35.8 µM); MIC (S. aureus (MRSA) ST450; S. No. 6, S. aureus (MRSA) ST450, read-out: MIC): 8 µg/mL (≈ 17.9 µM); MIC ((MRSA) 562; S. No. 8, (MRSA) 562, read-out: MIC): 16 µg/mL (≈ 35.8 µM); MIC (S. aureus (Smith 49951); S. No. 9, S. aureus (Smith 49951), read-out: MIC): 16 µg/mL (≈ 35.8 µM); MIC ([1]; S. No. 11, S. epidermidis (MRSE) 23760, read-out: MIC): 4 µg/mL (≈ 8.94 µM); MIC ([2]; S. No. 13, S. epidermidis (MRSE)32965, read-out: MIC): 4 µg/mL (≈ 8.94 µM); MIC (E. faecalis SP 346 (VRE); S. No. 20, E. faecalis SP 346 (VRE), read-out: MIC): 8 µg/mL (≈ 17.9 µM); MIC (S. pneumoniae AB-3; S. No. 32, S. pneumoniae AB-3, read-out: MIC): 8 µg/mL (≈ 17.9 µM); MIC (S. pneumoniae AB 31; S. No. 36, S. pneumoniae AB 31, read-out: MIC): 8 µg/mL (≈ 17.9 µM); MIC (S. pneumoniae 217; S. No. 38, S. pneumoniae 217, read-out: MIC): 4 µg/mL (≈ 8.94 µM); MIC (S. pneumoniae CS 1687; S. No. 44, S. pneumoniae CS 1687, read-out: MIC): 4 µg/mL (≈ 8.94 µM); MIC (S. pneumoniae ATCC 49619; S. No. 48, S. pneumoniae ATCC 49619, read-out: MIC): 4 µg/mL (≈ 8.94 µM); MIC (S. pneumoniae AB 34; S. No. 49, S. pneumoniae AB 34, read-out: MIC): 4 µg/mL (≈ 8.94 µM); MIC (S. pneumoniae 1251; S. No. 54, S. pneumoniae 1251, read-out: MIC): 4 µg/mL (≈ 8.94 µM); MIC (S pneumoniae 1294.; S. No. 55, S pneumoniae 1294., read-out: MIC): 8 µg/mL (≈ 17.9 µM); MIC (S. pneumoniae 1256; S. No. 56, S. pneumoniae 1256, read-out: MIC): 4 µg/mL (≈ 8.94 µM); MIC (S. pneumoniae 1275; S. No. 57, S. pneumoniae 1275, read-out: MIC): 2 µg/mL (≈ 4.47 µM); MIC (Moraxella cata. M2; S. No. 59, Moraxella cata. M2, read-out: MIC): > 16 µg/mL
CN[C@H](CC(C)C)C(=O)N[C@H]1C(=O)N[C@@H](CC(N)=O)C(=O)N[C@H]2C(=O)N[C@H]3C(=O)N[C@H](C(=O)N[C@H](C(=O)O)c4cc(O)cc(O)c4-c4cc3ccc4O)[C@H](O)c3ccc(c(Cl)c3)Oc3cc2cc(c3O[C@@H]2O[C@H](CO)[C@@H](O)[C@H](O)[C@H]2O[C@H]2C[C@](C)(N)[C@H](O)[C@H](C)O2)Oc2ccc(cc2Cl)[C@H]1O [Vancomycin, reference compound]	0.5 (≈ 0.345 µM)	0.5 (≈ 0.345 µM)	0.5 (≈ 0.345 µM)	1 (≈ 0.69 µM)	1 (≈ 0.69 µM)	2 (≈ 1.38 µM)	2 (≈ 1.38 µM)	> 16	> 16	0.5 (≈ 0.345 µM)	0.25 (≈ 0.173 µM)	0.5 (≈ 0.345 µM)	0.25 (≈ 0.173 µM)	0.25 (≈ 0.173 µM)	0.25 (≈ 0.173 µM)	0.25 (≈ 0.173 µM)	0.5 (≈ 0.345 µM)	0.5 (≈ 0.345 µM)	0.5 (≈ 0.345 µM)	> 8	
